Test results reported in ChEMBL document CHEMBL4706659, “Design, synthesis and biological evaluation of novel 2,4-diaryl pyrimidine derivatives as selective EGFR inhibitors” (Eur J Med Chem, 2021).

How the values were obtained:
NCI-H1975 [1] = assay: Induction of mitochondrial membrane potential loss in human NCI-H1975 cells harboring EGFR T790M/L858R mutant assessed as cells with intact mitochondrial membrane potential at 10 nM measured after 24 hrs by JC1 staining based fluorescence microscopic analysis (reference value: 94.51%); type: functional
NCI-H1975 [2] = assay: Induction of apoptosis in human NCI-H1975 cells harboring EGFR T790M/L858R mutant assessed as early apoptotic cells at 1 nM measured after 72 hrs by Annexin-V-FITC/propidium iodide staining based flow cytometry (reference value: 0.72%); type: functional
[3] = Selectivity ratio of IC50 for HEK293-A cells to IC50 for antiproliferative activity against human NCI-H1975 cells; type: toxicity, cell-based; conditions: HEK293-A cells versus NCI-H1975 cells, read-out: Ratio IC50
[4] = biological target: Epidermal growth factor receptor (Homo sapiens, UniProt P00533, L858R); assay: Inhibition of human recombinant GST-tagged EGFR L858R mutant expressed in baculovirus expression system using tyrosine 4 peptide as substrate after 60 mins in presence of ATP FRET based Z'-LYTE assay
NCI-H1975 [5] = assay: Induction of mitochondrial membrane potential loss in human NCI-H1975 cells harboring EGFR T790M/L858R mutant assessed as cell population with mitochondrial membrane potential collapse at 5 nM measured after 24 hrs by JC1 staining based fluorescence microscopic analysis (reference value: 5.49%); type: functional
NCI-H1975 [6] = assay: Induction of apoptosis in human NCI-H1975 cells harboring EGFR T790M/L858R mutant assessed as viable cells at 5 nM measured after 48 hrs by Annexin-V-FITC/propidium iodide staining based flow cytometry (reference value: 98.63%); type: functional; conditions: read-out: Activity
NCI-H1975 [7] = assay: Antimigratory activity against human NCI-H1975 cells harboring EGFR T790M/L858R mutant assessed as inhibition of cell migration at 9 nM measured after 24 hrs by phase contrast microscopic analysis relative to control; type: functional
NCI-H1975 [8] = assay: Induction of apoptosis in human NCI-H1975 cells harboring EGFR T790M/L858R mutant assessed as late apoptotic cells at 5 nM measured after 72 hrs by Annexin-V-FITC/propidium iodide staining based flow cytometry (reference value: 0.13%); type: functional
NCI-H1975 [9] = assay: Induction of apoptosis in human NCI-H1975 cells harboring EGFR T790M/L858R mutant assessed as necrotic cells at 10 nM measured after 72 hrs by Annexin-V-FITC/propidium iodide staining based flow cytometry (reference value: 0.49%); type: functional
[10] = Oral bioavailability in Sprague-Dawley rat at 10 mg/kg administered as single dose; type: ADME, organism-based; conditions: in vivo
NCI-H1975 [11] = assay: Induction of apoptosis in human NCI-H1975 cells harboring EGFR T790M/L858R mutant assessed as viable cells at 5 nM measured after 72 hrs by Annexin-V-FITC/propidium iodide staining based flow cytometry (reference value: 98.66%); type: functional; conditions: read-out: Activity
[12] = Cytotoxicity against HLF cells assessed as reduction in cell viability by MTT assay; type: cell-based; conditions: Homo sapiens
[13] = Half life in Sprague-Dawley rat at 2 mg/kg, iv administered as single dose; type: ADME, organism-based; conditions: in vivo
NCI-H1975 [14] = assay: Induction of apoptosis in human NCI-H1975 cells harboring EGFR T790M/L858R mutant assessed as necrotic cells at 1 nM measured after 72 hrs by Annexin-V-FITC/propidium iodide staining based flow cytometry (reference value: 0.49%); type: functional
NCI-H1975 [15] = assay: Antimigratory activity against human NCI-H1975 cells harboring EGFR T790M/L858R mutant assessed as inhibition of cell migration at 3 nM measured after 48 hrs by phase contrast microscopic analysis relative to control; type: functional
NCI-H1975 [16] = assay: Induction of apoptosis in human NCI-H1975 cells harboring EGFR T790M/L858R mutant assessed as early apoptotic cells at 5 nM measured after 72 hrs by Annexin-V-FITC/propidium iodide staining based flow cytometry (reference value: 0.72%); type: functional
NCI-H1975 [17] = assay: Induction of apoptosis in human NCI-H1975 cells harboring EGFR T790M/L858R mutant assessed as necrotic cells at 5 nM measured after 72 hrs by Annexin-V-FITC/propidium iodide staining based flow cytometry (reference value: 0.49%); type: functional
NCI-H1975 [18] = assay: Antitumor activity against human NCI-H1975 cells harboring EGFR T790M/L858R mutant xenografted in nude mouse assessed as tumor growth inhibition at 15 mg/kg, po administered once daily for 7 days relative to control; type: functional; conditions: Mus musculus, NCI-H1975, po, 168 h, time 7 day, read-out: TGI
NCI-H1975 [19] = assay: Induction of apoptosis in human NCI-H1975 cells harboring EGFR T790M/L858R mutant assessed as necrotic cells at 10 nM measured after 48 hrs by Annexin-V-FITC/propidium iodide staining based flow cytometry (reference value: […]); type: functional
NCI-H1975 [20] = assay: Induction of mitochondrial membrane potential loss in human NCI-H1975 cells harboring EGFR T790M/L858R mutant assessed as cells with intact mitochondrial membrane potential at 5 nM measured after 24 hrs by JC1 staining based fluorescence microscopic analysis (reference value: 94.51%); type: functional
NCI-H1975 [21] = assay: Induction of apoptosis in human NCI-H1975 cells harboring EGFR T790M/L858R mutant assessed as late apoptotic cells at 1 nM measured after 48 hrs by Annexin-V-FITC/propidium iodide staining based flow cytometry (reference value: 0.04%); type: functional
NCI-H1975 [22] = assay: Antiproliferative activity against human NCI-H1975 cells harboring EGFR T790M/L858R mutant by MTT assay; type: functional, cell-based
[23] = Selectivity ratio of IC50 for HLF cells to IC50 for antiproliferative activity against human NCI-H1975 cells
[24] = Selectivity ratio of IC50 for human L02 cells to IC50 for antiproliferative activity against human NCI-H1975 cells; type: toxicity, cell-based; conditions: L02 cells versus NCI-H1975 cells, read-out: Ratio IC50
NCI-H1975 [25] = assay: Induction of apoptosis in human NCI-H1975 cells harboring EGFR T790M/L858R mutant assessed as late apoptotic cells at 10 nM measured after 48 hrs by Annexin-V-FITC/propidium iodide staining based flow cytometry (reference value: 0.04%); type: functional
NCI-H1975 [26] = assay: Antimigratory activity against human NCI-H1975 cells harboring EGFR T790M/L858R mutant assessed as inhibition of cell migration at 9 nM measured after 48 hrs by phase contrast microscopic analysis relative to control; type: functional
NCI-H1975 [27] = assay: Induction of apoptosis in human NCI-H1975 cells harboring EGFR T790M/L858R mutant assessed as viable cells at 1 nM measured after 48 hrs by Annexin-V-FITC/propidium iodide staining based flow cytometry (reference value: 98.63%); type: functional; conditions: read-out: Activity
[28] = Tmax in Sprague-Dawley rat at 10 mg/kg, po administered as single dose; type: ADME, organism-based; conditions: in vivo
NCI-H1975 [29] = assay: Induction of apoptosis in human NCI-H1975 cells harboring EGFR T790M/L858R mutant assessed as necrotic cells at 1 nM measured after 48 hrs by Annexin-V-FITC/propidium iodide staining based flow cytometry (reference value: […]); type: functional
[30] = MRT in Sprague-Dawley rat at 10 mg/kg, po administered as single dose; type: ADME, organism-based; conditions: in vivo

Sequence of Epidermal growth factor receptor (P00533 25-1210 L858R limits assumed): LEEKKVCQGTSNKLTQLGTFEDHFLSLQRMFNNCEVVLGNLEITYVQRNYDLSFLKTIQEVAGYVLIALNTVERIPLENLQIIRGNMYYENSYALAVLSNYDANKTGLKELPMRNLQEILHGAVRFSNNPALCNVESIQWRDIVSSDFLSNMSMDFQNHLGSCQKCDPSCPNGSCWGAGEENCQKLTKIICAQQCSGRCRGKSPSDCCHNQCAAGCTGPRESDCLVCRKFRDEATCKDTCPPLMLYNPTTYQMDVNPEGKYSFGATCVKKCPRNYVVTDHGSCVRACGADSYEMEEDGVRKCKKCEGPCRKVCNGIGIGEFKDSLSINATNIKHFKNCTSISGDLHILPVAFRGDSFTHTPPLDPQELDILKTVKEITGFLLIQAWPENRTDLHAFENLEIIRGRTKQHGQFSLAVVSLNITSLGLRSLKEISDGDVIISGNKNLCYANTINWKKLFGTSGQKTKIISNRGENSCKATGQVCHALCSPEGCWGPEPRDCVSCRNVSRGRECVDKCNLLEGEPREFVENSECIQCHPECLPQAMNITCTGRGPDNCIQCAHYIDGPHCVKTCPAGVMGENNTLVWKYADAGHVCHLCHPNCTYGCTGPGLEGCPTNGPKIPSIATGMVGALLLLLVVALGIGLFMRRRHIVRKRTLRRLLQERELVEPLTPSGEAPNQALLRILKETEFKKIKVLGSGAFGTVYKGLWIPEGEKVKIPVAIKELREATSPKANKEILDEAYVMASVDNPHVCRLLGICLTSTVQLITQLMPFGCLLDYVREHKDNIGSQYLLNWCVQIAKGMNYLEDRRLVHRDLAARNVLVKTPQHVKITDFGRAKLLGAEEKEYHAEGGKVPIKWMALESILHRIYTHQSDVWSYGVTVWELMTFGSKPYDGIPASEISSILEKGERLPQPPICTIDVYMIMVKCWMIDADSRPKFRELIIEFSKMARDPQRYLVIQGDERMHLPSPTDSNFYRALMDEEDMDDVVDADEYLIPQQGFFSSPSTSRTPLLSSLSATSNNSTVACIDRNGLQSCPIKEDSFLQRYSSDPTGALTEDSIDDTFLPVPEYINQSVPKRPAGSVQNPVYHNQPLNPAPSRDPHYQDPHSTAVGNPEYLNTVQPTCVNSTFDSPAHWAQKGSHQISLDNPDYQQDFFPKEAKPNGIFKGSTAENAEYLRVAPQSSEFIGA

In the case of C=CC(=O)Nc1cc(Nc2nccc(-c3cn(C4CC4)c4ccccc34)n2)c(OC)cc1[S+]([O-])CCN(C)C (stereo not given), the Activity (NCI-H1975 [1]) is reported as 59.69%, the Activity (NCI-H1975 [2]) is reported as 17.25% and the selectivity ratio [3] is reported as 383. It also gave an IC50 [4] of 1.1 nM, an Activity (NCI-H1975 [5]) of 26.9% and a viability at 0.005 µM (NCI-H1975 [6]) of 68.2%. For the same molecule, the inhibition at 0.009 µM (NCI-H1975 [7]) was 47%, the Activity (NCI-H1975 [8]) was 17.07% and the Activity (NCI-H1975 [9]) was 5.38%. It also gave a bioavailability [10] of 40.4%, a viability at 0.005 µM (NCI-H1975 [11]) of 52.5% and an IC50 [12] of 6040 nM. It also gave a half-life [13] of 0.7 h, an Activity (NCI-H1975 [14]) of 9.52% and an inhibition at 0.003 µM (NCI-H1975 [15]) of 53%. It also gave an Activity (NCI-H1975 [16]) of 19.59%, an Activity (NCI-H1975 [17]) of 10.51% and an inhibition in vivo at 15 mg/kg (NCI-H1975 [18]) of 93.3%. It also gave an Activity (NCI-H1975 [19]) of 21.2%, an Activity (NCI-H1975 [20]) of 72.38% and an Activity (NCI-H1975 [21]) of 1.64%. The IC50 (NCI-H1975 [22]) was 8 nM, the “Ratio IC50” value [23] was 755 and the selectivity ratio [24] was 584. The Activity (NCI-H1975 [25]) was 21.25%, the inhibition at 0.009 µM (NCI-H1975 [26]) was 74% and the viability at 0.001 µM (NCI-H1975 [27]) was 82%. It also gave a Tmax [28] of 1.67 h, an Activity (NCI-H1975 [29]) of 5.52% and an MRT [30] of 3.61 h.
